Entries after “also recorded” stand apart in the source; their conditions may differ. Like-named read-outs stand apart in the source and are kept apart here.
Tests used:
[1] = tested on: animal pain models; conditions: in vivo, iv; cited from earlier work
[2] = tested on: model of peripheral neuropathy in the rat; conditions: ref Franek et al., 2004; cited from earlier work
Source text: Furthermore, GABAB receptor activation inhibits the activity of N-type CaV channels (CaV2.2) and inhibition of N-type channels expressed by nocicept ...

[3] = tested on: eEPSCs in the dorsal horn of rat spinal cord; conditions: cited from earlier work
[4] = tested on: CaV current in rat sensory neurons (DRG); assay: cells; type: cell-based, rat (adult male Sprague Dawley); conditions: for inhibition at 30 µM: Rattus norvegicus, Neuron

| Compound | effect on neuropathic pain [1] | analgesic effect [2] | effect on eEPSCs / EPSPs in dorsal horn [3] | sensory neurons with CaV current inhibited by baclofen [4] [%] | voltage dependence of CaV current inhibition [4] | inhibition at 30 µM ([4]; read-out: CaV current inhibition in the neuron with the largest Vc1.1 and RgIA response) [%] | inhibition at 30 µM ([4]; read-out: CaV current inhibition in the neuron with the largest baclofen response) [%] | inhibition at 30 µM ([4]; read-out: baclofen-induced CaV current inhibition in seven other neurons) [%] | inhibition at 30 µM ([4]; read-out: postpulse CaV current inhibition) [%] | inhibition at 30 µM ([4]; read-out: prepulse CaV current inhibition) [%] |
| --- | --- | --- | --- | --- | --- | --- | --- | --- | --- | --- |
| ziconotide [reference compound] | did not decrease neuropathic pain | – | – | – | – | – | – | – | – | – |
| NCC(CC(=O)O)c1ccc(Cl)cc1 (stereo not shown) [baclofen, reference compound] | – | analgesic effects | strongly inhibited; also recorded: almost completely blocked | 95 | voltage-dependent | 22 | 34 | 20 to 24 | 12 ± 5.5 | 19.2 ± 6.8 |

Source: publication PMC4465272 (eNeuro, 2015)
